Starred links: 1 amine or outer side, 2 acyl side, 3 side chain; linkers in the order of their positions; H or OH if unused. Residues, ends and D or L forms follow the SMILES beside them. *: point of attachment. pNA = O=[N+]([O-])c1ccc(N*)cc1; Suc = O=C(CCC(=O)[*:2])[*:1]
Assays:
[1] = molecular target: T1, PPIase domain (Par17Δ1-60) (Homo sapiens, UniProt Q9Y237); experiment: Protease-coupled isomerase assay (PPIase assay) with the catalytic domain; assay type: biochemical; details: PBS pH 6.8, 10°C, PPIase 2 μM; for k = kobserved - kthermic, PPIase domain (Par17Δ1-60): α-chymotrypsin 35 μM, substrate 75 μM, absorbance 390 nm, mean ± SD
T1 construct: GST-His6 (PreScission site) (N, cleaved yes); made in house; host or cells: E. coli BL21 (DE3) T1r
Description: (§1) To determine the catalytic efficiency and substrate specificity of Par14 and Par17, we performed a protease‐coupled assay. In this assay, the trans form of a para‐nitroaniline (pNA) tagged model substrate is cleaved by chymotrypsin, and the resulting change in absorption at 390 nm due to free pNA is measured. When the model substrate is added to the protease‐containing buffer, all trans‐Xaa‐Pro isomers are immediately cleaved by chymotrypsin. Therefore, the extent of the first signal burst observed in the absorption spectrum correlates with the amount of trans isomers of the model substrate formed during the experimental dead time. The remaining cis‐Xaa substrates now start to isomerize by thermal (in the absence of PPIase) or catalytic reaction (in the presence of PPIase). The newly formed trans‐Xaa substrates are immediately cleaved, and isomerization can thus be monitored over time (Figure 2). Eighteen different substrate peptides with varying amino acids at the Xaa position (Suc‐Ala‐Xaa‐Pro‐Phe‐pNa) were measured to determine the isomerase activity and substrate selectivity of Par14 (Par17Δ1–25), Par17, and the catalytic domain (Par17Δ1–60) (Table S1). The catalytic efficiency is obtained from the observed isomerization curves by calculating the difference between the rate constant in the presence of enzyme and the rate constant obtained from thermal isomerization.
(§2) We determined the isomerase activity using the PPIase assay described by. The lyophilized peptides were dissolved in an adequate volume of 0.5 mM‐LiCl/TFE buffer to obtain a 15 mM stock solution. To achieve a stable cis/trans ratio the mixture was incubated overnight at 4°C. The next day a stock solution of 350 μM α‐chymotrypsin in PBS was incubated on ice for at least 20 min. For measurements without PPIase PBS buffer (pH 6.8) was mixed with α‐chymotrypsin to a final concentration of 35 μM in 1 mL. A baseline was recorded for 5 min (Cary 100Bio UV/Vis spectrophotometer, Varian/Agilent, Santa Clara, US, λ: 390 nm, bandwidth: 1.0 nm, average time between measurements: 0.5 s, temperature: 10°C). After 5 min the substrate peptide was added to a final concentration of 75 μM in 1 mL [59]. The solution was mixed by inverting the cuvette three times and the reaction was recorded for 15 min. Measurements in the presence of PPIase were performed in the same way, except that before the baseline measurement, the appropriate isomerase was added in a final concentration of 2 μM in 1 mL in addition to PBS and α‐chymotrypsin.
(§3) For the data analysis, a mean value of the baseline was subtracted (average of the first 200 data points). The measured values were normalized according to the respective maximum of the measurement. To determine the rate constant, the program graph pad was used, and non‐linear curve fitting was applied for each measurement (exponential, one‐phase association). (1) Y=Y0+Plateau−Y0∙1−e^−K∙x
(§4) where x is the time (min), Y is the absorbance, Y 0 is the absorbance when x = 0, Plateau is the Y value at infinite times, K is the rate constant (min^−1).
(§5) The K cat/K M value was calculated according to Equation (2): (2) kcat/KM=kobs−ktherm/PPIase where k cat/K M is the catalytic efficiency (M^−1 s^−1), k obs, rate constant of the observed reaction (s^−1), k therm is the rate constant of the thermic reaction (s^−1), and [PPIase] is the concentration of PPIase used in the assay (M).
(§6) The obtained data are fitted to Equation (2) using a pseudo first‐order assumption. This is the case, if k obs values behave linearly with rising PPIase concentrations.

Par14 (Par17Δ1-25) = molecular target: T2, Par14 (Par17Δ1-25) (Homo sapiens, UniProt Q9Y237); experiment: Protease-coupled isomerase assay (PPIase assay) with Par14; assay type: biochemical; details: PBS pH 6.8, 10°C, PPIase 2 μM; for k = kobserved - kthermic, Par14 (Par17Δ1-25): α-chymotrypsin 35 μM, substrate 75 μM, absorbance 390 nm, mean ± SD
T2 construct: Comparison of spectra of full‐length parvulin proteins and PPIase domain; GST-His6 (PreScission site) (N, cleaved yes); made in house; host or cells: E. coli BL21 (DE3) T1r
Description: as §1, §2, §3, §4, §5, §6

Par17 [2] = molecular target: T3, Par17 (Homo sapiens, UniProt Q9Y237); experiment: NMR titration of substrate peptides to 15N-labeled full-length Par17; assay type: binding; details: 300 μM Par17, KPi pH 6.7, 20°C
T3 construct: full‐length Par17 and the N‐terminus of Par17; GST-His6 (PreScission site) (N, cleaved yes); Gly-Pro remnant of the PreScission site (Gly stands at position 1 in place of Met1); made in house; host or cells: E. coli BL21 (DE3) T1r
Description: The amide signals were assigned and combined chemical shift changes between the signals of free and substrate‐bound isomers were calculated.
For NMR measurements, purified and concentrated proteins in salt‐free buffers were mixed with 10% D2O and 1 μL DSS standard. Spectra were measured on an ultra shield 700‐NMR (Bruker, Billerica, US) with a triple resonance cryoprobe (700 MHz). For recording and processing of data, the software Topspin 3.5 was used. Analysis of spectra was carried out using Cara analysis software 2.3.1 (Rochus L.J. Keller) and/or CcpNmr Analysis 2.3.1 (Department of Molecular and Cell Biology, University of Leicester, UK).
Titration of substrate peptides to ^ 15 N‐labeled full‐length Par17 and the N‐terminus of Par17: The following substrate peptides were diluted in salt‐free 50 mM KPi buffer pH 6.7 to a concentration of 15 mM (Suc: Succinyl, pNA: para‐Nitroanilin):
They were added stepwise to 200 μL of the labeled parvulins (300 μM in 50 mM KPi buffer pH 6.7). Spectra were recorded with the pulse program Best‐TROSY at 20°C. Combined chemical shifts were calculated as described. Microscopic dissociation constant K D was fitted with the following equation (assuming a 1:1 binding model): (4) ∆δ=∆δmax·P+x+KD−P+x+KD^2−4·x·P/2·P
where ∆δmax is the amplitude, P is the protein concentration, X is the concentration of the peptide.
Differences in chemical shift changes could be measured up to 0.001 ppm (error in peak picking). Changes were interpreted as significant if Δ > 0.004 ppm and when appearing consecutively in a linear sequence element.
The microscopic K D describes the binding affinity of the ligand to a single side of an amino acid.

Par17 [3] = molecular target: T3, Par17; experiment: Protease-coupled isomerase assay (PPIase assay) with Par17; assay type: biochemical; details: for k = kobserved - kthermic, Par17: α-chymotrypsin 35 μM, substrate 75 μM, absorbance 390 nm, mean ± SD
Description: as §1, §2, §3, §4, §5, §6

[4] = Table ST1, (kobs−ktherm)/[PPIase]

T3 sequence (Q9Y237 1-156 isoform Q9Y237-2): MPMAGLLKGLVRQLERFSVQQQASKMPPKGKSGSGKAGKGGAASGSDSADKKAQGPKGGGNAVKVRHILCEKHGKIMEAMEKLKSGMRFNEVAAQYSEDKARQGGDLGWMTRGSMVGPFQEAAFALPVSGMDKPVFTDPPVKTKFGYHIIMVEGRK
T2 sequence (Q9Y237 whole entry, stated change not applied, the tested form may be a part): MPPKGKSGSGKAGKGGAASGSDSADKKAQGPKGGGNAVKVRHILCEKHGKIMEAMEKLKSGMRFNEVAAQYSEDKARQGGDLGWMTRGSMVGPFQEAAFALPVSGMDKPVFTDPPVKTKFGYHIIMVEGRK
T1 sequence (Q9Y237 36-131, stated change not applied): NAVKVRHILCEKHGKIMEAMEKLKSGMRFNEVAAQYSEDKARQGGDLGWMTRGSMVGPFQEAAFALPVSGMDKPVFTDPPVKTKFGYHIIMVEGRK

| Compound | k = kobserved - kthermic, PPIase domain (Par17Δ1-60) [1] | k = kobserved - kthermic, Par14 (Par17Δ1-25) (Par14 (Par17Δ1-25)) | Combined chemical shift perturbation of full length Par17, 115M (Par17 [2]; peptide 0,2 mM) | Combined chemical shift perturbation of full length Par17, 119F (Par17 [2]; peptide 0,2 mM) | Combined chemical shift perturbation of full length Par17, 115M (Par17 [2]; peptide 1 mM) | Combined chemical shift perturbation of full length Par17, 116V (Par17 [2]; peptide 1 mM) | Combined chemical shift perturbation of full length Par17, 119F (Par17 [2]; peptide 1 mM) | Combined chemical shift perturbation of full length Par17, 115M (Par17 [2]; peptide 2 mM) | Combined chemical shift perturbation of full length Par17, 116V (Par17 [2]; peptide 2 mM) | Combined chemical shift perturbation of full length Par17, 119F (Par17 [2]; peptide 2 mM) | Combined chemical shift perturbation of full length Par17, 115M (Par17 [2]; peptide 3 mM) | Combined chemical shift perturbation of full length Par17, 116V (Par17 [2]; peptide 3 mM) | Combined chemical shift perturbation of full length Par17, 119F (Par17 [2]; peptide 3 mM) | Combined chemical shift perturbation of full length Par17, 115M (Par17 [2]; peptide 4 mM) | Combined chemical shift perturbation of full length Par17, 119F (Par17 [2]; peptide 4 mM) | k = kobserved - kthermic, Par17 (Par17 [3]; PBS pH 6.8, 10°C, PPIase 2 μM) | other results |
| --- | --- | --- | --- | --- | --- | --- | --- | --- | --- | --- | --- | --- | --- | --- | --- | --- | --- |
| C[C@H](NC(=O)CCC(=O)O)C(=O)N[C@@H](CCCNC(=N)N)C(=O)N1CCC[C@H]1C(=O)N[C@@H](Cc1ccccc1)C(=O)Nc1ccc([N+](=O)[O-])cc1 [Arg, Suc‐Ala‐Arg‐Pro‐Phe‐pNa] (Suc-ARPF-pNA) | 0.683 ± 0.064 min⁻¹ | 0.582 ± 0.094 min⁻¹ | 0,0060079 ppm | 0,00418543 ppm | 0,0143348 ppm | 0,13037308 ppm | 0,01835824 ppm | 0,02655282 ppm | 0,18551846 ppm | 0,03376697 ppm | 0,03809928 ppm | 0,23776807 ppm | 0,04577626 ppm | 0,0454705 ppm | 0,05474353 ppm | 0.470 ± 0.037 min⁻¹ | Combined chemical shift perturbation of full length Par17, 115M (Par17 [2]; peptide 0,4 mM): 0,00801333 ppm; Combined chemical shift perturbation of full length Par17, 116V (Par17 [2]; peptide 0,4 mM): 0,06817833 ppm; Combined chemical shift perturbation of full length Par17, 119F (Par17 [2]; peptide 0,4 mM): 0,00841748 ppm; Combined chemical shift perturbation of full length Par17, 115M (Par17 [2]; peptide 5 mM): 0,0546769 ppm; Combined chemical shift perturbation of full length Par17, 119F (Par17 [2]; peptide 5 mM): 0,06351885 ppm; k cat/K M of Par17, times higher than for Leu‐Pro, Gln‐Pro or His‐Pro peptides (Par17 [3]; ratio of k cat/K M values): approximately 10 times |
| C[C@H](NC(=O)CCC(=O)O)C(=O)N[C@@H](CCC(=O)O)C(=O)N1CCC[C@H]1C(=O)N[C@@H](Cc1ccccc1)C(=O)Nc1ccc([N+](=O)[O-])cc1 [Glu, Suc–Ala–Glu–Pro–Phe–pNa] (Suc-AEPF-pNA) | 0.114 ± 0.074 min⁻¹ | 0.267 ± 0.011 min⁻¹ | 0,01409 ppm | 0,02147 ppm | 0,06465 ppm | 0,12599 ppm | 0,0896 ppm | 0,10754 ppm | 0,21191 ppm | 0,14351 ppm | 0,13595 ppm | 0,27245 ppm | 0,18213 ppm | 0,16135 ppm | 0,22445 ppm | <0.01 ± 0.029 min⁻¹ | Combined chemical shift perturbation of full length Par17, 113G (Par17 [2]; peptide 0,2 mM): 0,02117 ppm; Combined chemical shift perturbation of full length Par17, 116V (Par17 [2]; peptide 0,2 mM): 0,03056 ppm; Combined chemical shift perturbation of full length Par17, 113G (Par17 [2]; peptide 1 mM): 0,08535 ppm; Combined chemical shift perturbation of full length Par17, 113G (Par17 [2]; peptide 2 mM): 0,14414 ppm; Combined chemical shift perturbation of full length Par17, 113G (Par17 [2]; peptide 3 mM): 0,17998 ppm; Combined chemical shift perturbation of full length Par17, 113G (Par17 [2]; peptide 4 mM): 0,21636 ppm; Combined chemical shift perturbation of full length Par17, 116V (Par17 [2]; peptide 4 mM): 0,32999 ppm |
| Suc-Ala-Ser-Pro-Phe-pNa [model substrate peptide, Xaa = Ser] | 0.327 ± 0.273 min⁻¹ | 0.332 ± 0.054 min⁻¹ | – | – | – | – | – | – | – | – | – | – | – | – | – | <0.01 ± 0.098 min⁻¹ | kcat/KM, PPIase domain (Par17Δ1-60) [1, 4]: 2.7 M^-1·s^-1 · 10^3; kcat/KM, Par14 (Par17Δ1-25) (Par14 (Par17Δ1-25); [4]): 2.7 M^-1·s^-1 · 10^3; kcat/KM, Par17 (Par17 [3]; Table ST1, (kobs−ktherm)/[PPIase], PPIase 2 μM, PBS pH 6.8, 10°C): <0.1 M^-1·s^-1 · 10^3 |
